Target: T1, MUN-1 beta-lactamase
T1 construct: gene blaMUN-1; full gene cloned in pTOPO-kanR, expressed in E. coli TOP10, purified by ion exchange; no tag mentioned
Assay: beta-lactamase inhibition
Type: biochemical, Escherichia coli
Conditions: covalent (known mechanism); reporter substrate and buffer only in supplement

Compared with `C[C@]1(Cn2ccnn2)[C@H](C(=O)O)N2C(=O)C[C@H]2S1(=O)=O` [tazobactam], `O=C(O)[C@H]1/C(=C/CO)O[C@@H]2CC(=O)N21` [clavulanic acid] is 2.5-fold lower in IC50: 0.8 nM for the first, 0.32 nM for the second.

For `NC(=O)[C@@H]1CC[C@@H]2CN1C(=O)N2OS(=O)(=O)O` [avibactam], the IC50 was 3.8 nM.

System: T1, MUN-1 beta-lactamase
Assay: hydrolysis kinetics, purified beta-lactamase
Type: biochemical, Escherichia coli
Conditions: details in supplement; read-out: Kinetic measurement / Km
Excerpt: hydrolysis kinetics, purified beta-lactamase on MUN-1 beta-lactamase

Going from `CC(=O)OCC1=C(C(=O)O)N2C(=O)[C@@H](NC(=O)Cc3cccs3)[C@H]2SC1` [Cephalothin] to `CC1(C)S[C@@H]2[C@H](NC(=O)Cc3ccccc3)C(=O)N2[C@H]1C(=O)O` [Penicillin G], the Km rises from 15 µM to 95 µM (6.3-fold).

First: C[C@H]1[C@H](NC(=O)/C(=N\OC(C)(C)C(=O)O)c2csc(N)n2)C(=O)N1S(=O)(=O)O [Aztreonam]
Second: CC1(C)S[C@@H]2[C@H](NC(=O)[C@H](N)c3ccccc3)C(=O)N2[C@H]1C(=O)O [Ampicillin]
The Km of the first is 6.2-fold lower: 45 µM for the first, 280 µM for the second.

Target: T1, MUN-1 beta-lactamase
Assay: kinetic measurement, purified beta-lactamase
Type: biochemical, Escherichia coli
Conditions: covalent (acylation without deacylation suggested); details in supplement
Excerpt: kinetic measurement, purified beta-lactamase on MUN-1 beta-lactamase

Going from `CC(C)(O/N=C(\C(=O)N[C@@H]1C(=O)N2C(C(=O)[O-])=C(C[n+]3ccccc3)CS[C@H]12)c1csc(N)n1)C(=O)O` [Ceftazidime] to `CCN1CCN(C(=O)N[C@@H](C(=O)N[C@@H]2C(=O)N3[C@@H]2SC(C)(C)[C@@H]3C(=O)O)c2ccccc2)C(=O)C1=O` [Piperacillin], the Ki falls from 580 nM to 7.2 nM (81-fold).

Same assay, conditions: details in supplement

First: CC1(C)S[C@@H]2[C@H](NC(=O)[C@H](C(=O)O)c3ccsc3)C(=O)N2[C@H]1C(=O)O [Ticarcillin]
Second: C[C@@H](O)[C@H]1C(=O)N2C(C(=O)O)=C(S[C@@H]3CN[C@H](C(=O)Nc4cccc(C(=O)O)c4)C3)[C@H](C)[C@H]12 [Ertapenem]
The Ki of the first is 4.7-fold lower: 3.6 nM for the first, 17 nM for the second.

Going from `C[C@@H](O)[C@H]1C(=O)N2C(C(=O)O)=C(SCCN=CN)C[C@H]12` [Imipenem] to `C[C@@H](O)[C@H]1C(=O)N2C(C(=O)O)=C(S[C@@H]3CN[C@H](C(=O)N(C)C)C3)[C@H](C)[C@H]12` [Meropenem], the Ki rises from 1.3 nM to 19 nM (15-fold). The first binds more tightly here.
